Assay results published in patent publication US12281077B2, “Solid forms of n-tert-butyl-4[[2-(5-chloro-2-hydroxy-phenyl)acetyl]amino]pyridine-2-carboxamide” (TMEM16A LIMITED, priority 2019, dated 2025).
Entries after “also recorded” stand apart in the source; their conditions may differ. Read-outs that look alike come from different tables or passages of the source. Blank lines part the entries; values can stand above or below the molecule they belong to.

Columns and labels:
Assay type in all cases: physicochemical
[1] = Competitive suspension equilibrations in acetonitrile; details: acetonitrile (20 vol)
Description: Form A of Compound 1 and the appropriate other form(s) of Compound 1 were suspended in acetonitrile (20 vol). […] When completed, the products were isolated, oven dried and analysed by XRPD.

[2] = Dynamic vapour sorption (DVS) of Form A
Method: The moisture sorption properties of the feed API were analysed by DVS (DVS Intrinsic,
Surface Measurement System). Approximately 50 mg of API was weighed into an aluminium pan and loaded into the instrument at 25° C. The sample was allowed to equilibrate under dry atmosphere (0% relative humidity) for 1 hour before increasing the humidity from 0% to 30% at 5% step increment and from 30% to 90% at 10% step increment. A desorption cycle was also applied from 90% to 30% (10% step) and from 30% to 0% (5% step). A rate of change by time was set as the equilibrium parameter (1 hour each step). Kinetic and isotherm graphs were calculated.

[3] = Aqueous surfactant equilibration of Form A: conversion into Form B monitored by XRPD
Method: A sample of Form A was micronised using an AS100 spiral jet mill (Alpine) with a ZD9 screw dosing system at a milling gas pressure of 5.0 bar (18° C.) and an injection gas pressure of 6.0 bar (18° C.). Feed rate was 350 g/hr.
Form A and micronised Form A were added to purified water containing the surfactants shown in Table 6, and the mixtures were stirred at 20° C.
Sub samples (300 to 500 μl) were withdrawn at the appropriate time points. The mixtures were centrifuged, the clarified supernatant was decanted, and the pellet was oven dried (20° C., 24 h) and analysed by XRPD. […] The time taken for complete conversion of Form A into Form B was concluded when Form A was no longer detectable by XRPD.
A micelle is an aggregate of surfactant molecules dispersed in a liquid colloid. Micelles form only when the concentration of surfactant is greater than the critical micelle concentration (CMC). • Surf 1: TWEEN® 80 (polysorbate 80; polyoxyethylene sorbitan monooleate) Critical Micellar Concentration (CMC) 13-15 mg/litre [actual concentration used=1 mg/ml, 1000 mg/litre>CMC] • Surf 2: TWEEN® 20 (polysorbate 20; polyethylene glycol sorbitan monolaurate) 20 Critical Micellar Concentration (CMC) ca 61 mg/litre [actual concentration used=0.5 mg/ml, 500 mg/litre>CMC] • Surf 3: SPAN® 20 (sorbitan monolaurate) no CMC in water, too hydrophobic and yet still exerted an inhibitory effect on the form conversion • Surf 4: TWEEN® 80 Critical Micellar Concentration (CMC) 13-15 mg/litre [actual concentration used=0.01 mg/ml, 10 mg/litre<CMC] • TWEEN® surfactants are soluble in water and SPAN® surfactants are oil soluble and not able to form micelles in water.

[4] = Thermocycling of Form B(I) in buffered aqueous suspensions (Form A control); details: −10° C. to +40° C.
Method: Form B(I) was prepared in the relevant formulation under sterile conditions. The samples were thermocycled for approximately 202 complete cycles. Off-line analyses of the suspensions were performed by polarised light microscopy and end point sampling was performed on the isolated solid pellets of the suspensions after centrifugation. The thermocycling incorporated a wide temperature range (−10° C. to +40° C.). A parallel study was performed using micronised Form A as control.
In all cases, the suspension volume was 2 ml and thermocycling was carried out over a temperature range −10° C. to +40° C. at a rate of change of 1° C./min for a duration of 336 hours (14 days) and […] cycles.
At daily intervals, a droplet from each thermocycle suspension was withdrawn, placed on a microscope slide and photographed. After 14 days constant thermocycling, the suspensions were filtered, isolable solids were oven dried and analysed for evidence of form change and change in chemical purity.

[5] = Thermocycling of Form A, Form B(I) and Form B(II) in purified water; details: purified water (10 vol), −10 to +10° C., ±0.5° C./minute, 75 h
Method: Samples of Compound 1, Form A, Form B(I) and Form B(II) were charged to separate Crystal 16 blank, glass vials and purified water (1 ml, 10.0 vol) was added each vial. Each vial underwent thermocycling from −10 to +10° C. at a ramp rate of ±0.5° C./minute, over 75 h.

[6] = Suspension equilibrations of Form A (Example 7)
Method: Compound 1 Form A, (ca 50 mg, 1.0 wt) and the appropriate solvent (1000 μl, 20 vol) were charged to separate vessels and stirred for 7 days at 20° C. After this time the products were cooled, isolated by filtration, washed with recycled maturation solvent, dried under reduced pressure at 40° C. and analysed by XRPD for evidence of alternative crystalline forms.
Separate portions of Compound 1, Form A (ca 50 mg, 1.0 wt.), and the appropriate solvent (1000 μl, 20 vol.) were charged to separate vessels and stirred for 7 days at 40° C. After this time, the products were cooled, isolated by filtration, washed with recycled maturation solvent, dried under reduced pressure at 40° C. and analysed by XRPD for evidence of alternative crystalline forms. N.B. water was also included in this screen. • All of the products corresponded to Form A, except the product isolated from tBME (Form D), and from THF (Form G; see FIG. 18). […] C. Aqueous Suspension Equilibrations of Form A at 20° C.
Separate portions of Compound 1, Form A (ca 50 mg, 1.0 wt.), and the appropriate solvent (950 μl, 19 vol) and purified water (50 μl, 1.0 vol) were charged to separate vessels and stirred for 7 to 10 days at 20° C. […] Form C is an anhydrous form, and sometimes occurs in the presence of aromatic solvents (toluene and trifluorotoluene).

[7] = Suspension equilibration of Form B in anhydrous acetonitrile; details: room temperature
Method: One portion of Form B(II) (1.01 g) was charged with anhydrous acetonitrile (15 vol, 15 ml).
This was stirred at room temperature with a flow of nitrogen. The mixture IPC was subsampled at t=3 h and t=23 h. The subsampled mixtures were centrifuged down (13400 rpm for 15 min), supernatants were removed and dried overnight in oven at 40° C. under reduced pressure. The remaining solid was dried (t=2 days) in oven overnight under reduced pressure at 40° C. overnight. The dried white solid (0.54 g, 54% yield not corr.) was analysed by XRPD and DSC.
A similar procedure was carried out for a portion of Form B(I) (1.06 g). Int his case, the mixture was subsampled at t=5 h and isolation was carried out at t=5 days. The uncorrected yield was 66%.

[8] = Compaction of Forms B(I) and B(II) (ca 10 tonnes)
Description: Assuming that the inconsistencies between the dehydration behaviours of the two batches were attributed to different locations and bindings of their water occupancies, both were examined after 10 tonne compaction, to determine if their dehydration features were conserved or altered after the application of equal pressure treatments.
A finely divided specimen of Form B(II) was applied evenly to the smooth surface of the lower sample anvil that was located inside the compression cell apparatus. A second smoothed face anvil was placed above the first and the sample was pressed into place using finger pressure. The sealed sample cell was then evacuated under house vacuum pressure for at least 5 minutes. An axial load of ca 10 metric tonnes was applied to the upper anvil and the specimen was maintained under a state of unilateral compression for at least 15 minutes. After which time, the apparatus was dismantled and the product was retrieved from the sample holder and analysed to determine if any phase modifications had taken place.

[9] = Suspension equilibration of Form B(II) in purified water; details: room temperature
Method: One portion of Form B(II) (1.0 g) was charged with purified water (15 vol, 15 ml). This was stirred at room temperature with a flow of nitrogen for 20 h. The mixture was subsampled at t=2 h and t=20 h. The subsampled mixture was centrifuged down (13400 rpm for 15 min) and supernatant was removed. The remaining solid was dried (at t=3 days) in the oven under reduced pressure at 40° C. overnight. The dried white solid (A0903-184-C1, 0.84 g, 83% yield not corr.). The result for the sample at 3 days are not shown as these are the same as the subsample taken at 20 hours.

[10] = Suspension equilibration of Form B(II) in acetonitrile/water
Method: To further investigate the stability hierarchy of Form B (I) and Form B (II), an equal portion of both Form B (I) and Form B (II) were competitively slurry ripened in 4 to 1 MeCN/Water (w/w) for 3 days.
One portion of Form B(II) (1.06 g) was charged with 4 to 1 v/v acetonitrile/water (15 vol, 15 ml). This was stirred at room temperature with a flow of nitrogen. The mixture was subsampled at t=4 h and t=23 h. The subsamples were centrifuged down (13400 rpm for 15 min), supernatants were removed and dried overnight in oven at 40° C. under reduced pressure.

[11] = micronised (particle size 2 μm), 20° C., with or without surfactant
[12] = citrate buffered surfactant suspensions, 1° C./min, 14 days

SMILES: CC(C)(C)NC(=O)c1cc(NC(=O)Cc2cc(Cl)ccc2O)ccn1 [Form A + Form F (1/1 w/w)]
Output form (XRPD) ([1]; 20 ° C.): Form A

SMILES: CC(C)(C)NC(=O)c1cc(NC(=O)Cc2cc(Cl)ccc2O)ccn1 [Form A + Form D (1/1 w/w)]
Output form (XRPD) ([1]; 40 ° C., stirred 7 days): Form A

SMILES: CC(C)(C)NC(=O)c1cc(NC(=O)Cc2cc(Cl)ccc2O)ccn1 [Form B(II), N-tert-Butyl-4-[[2-(5-chloro-2-hydroxy-phenyl)acetyl]amino]pyridine-2-carboxamide]
form after suspension equilibration in purified water (DSC) ([9]; 2 hours): only the unimodal event was observed; also recorded: converted to Form B(I) | form after suspension equilibration in purified water (DSC) ([9]; 20 hours and three days): converted to Form B(I) | form after stirring in 4 to 1 v/v acetonitrile/water (DSC, XRPD) ([10]; room temperature, t=4 h and t=23 h): production of Form B(I); also recorded: converted to Form B(I) | form change by XRPD and DSC after thermocycling [5]: almost all converted to the unimodal event | form after suspension equilibration in anhydrous acetonitrile (XRPD) ([7]; 3 hours, 23 hours and 3 days substantially the same): rapidly converted to Form A | degree of crystallinity by XRPD before compression [8]: 87.2% | form after 10 tonne compaction (DSC) [8]: converted to Form B(I) | degree of crystallinity by XRPD after compression ([8]; ca 10 metric tonnes): 80.3% | form after 10 tonne compaction (DSC) ([8]; listed as Form B (II)): Form B (I) emerged

More lines, main results first:

hydrate formation, XRPD repeated after the DVS test [2]: no hydrate was formed | hygroscopicity / moisture affinity by DVS [2]: not hygroscopic | change in mass (uptake of water) by DVS ([2]; 90% relative humidity (RH), 25° C.): 0.02% | storage stability of Form A in pre-made composition (surfactant present) ([3]; 20 to 40° C. storage conditions): 120 h | Form B in aqueous suspension of Form A ([3]; 24 hour time point): no Form B can be detected | time after which micronised Form A had almost completely converted into Form B [3, 11]: 146 h | time after which micronised Form A had started to convert to Form B [3, 11]: 48 h | form after thermocycling (XRPD) ([4]; citrate buffered Tween® 20/Span® 22, 14 days, 1° C./min): converted to Form B | form after thermocycling (XRPD) ([4]; citrate buffered Tween® 80, 14 days, 1° C./min): converted to Form B | time point of first morphological change (polarised light microscopy) ([4]; citrate buffered surfactant suspensions, 1° C./min): eight day | form stability to constant thermocycling (XRPD, DSC, TGA, microscopy) [4, 12]: changed into Form B(I) | chemical purity after thermocycling ([4]; 14 days, accompanying the form change): No reduction in chemical purity | form change by XRPD and DSC after thermocycling [5]: did not change | form after suspension equilibration in purified water only (XRPD) ([6]; 20° C., 7 to 10 days): partial conversion into Form B | form after suspension equilibration in purified water (XRPD) ([6]; 40° C., 7 days): Form A, no Form B was evident | Output form (XRPD) ([1]; 40 ° C., stirred 7 days): Form A
SMILES: CC(C)(C)NC(=O)c1cc(NC(=O)Cc2cc(Cl)ccc2O)ccn1 [Form A, N-tert-Butyl-4-[[2-(5-chloro-2-hydroxy-phenyl)acetyl]amino]pyridine-2-carboxamide]
form present in aqueous suspension of Form A ([3]; after 8 days): substantially all of the Compound 1 was present as the Form B hydrate crystalline form | form stability in solvent suspension (XRPD) ([6]; anhydrous solvents (20 vol), 20° C., 7 days): resilient to prolonged solvent mediated treatments

form stability to constant thermocycling (XRPD, DSC, TGA, microscopy) [4, 12]: stable | form change by XRPD and DSC after thermocycling [5]: unchanged | form after suspension equilibration in anhydrous acetonitrile (XRPD) ([7]; 5 hours, 5 days similar): rapidly converted to Form A | form after 10 tonne compaction (DSC) [8]: unchanged
SMILES: CC(C)(C)NC(=O)c1cc(NC(=O)Cc2cc(Cl)ccc2O)ccn1 [Form B(I), N-tert-Butyl-4-[[2-(5-chloro-2-hydroxy-phenyl)acetyl]amino]pyridine-2-carboxamide]

resulting solid (DSC) after competitive slurry ripening ([10]; 4 to 1 MeCN/Water (w/w), 3 days): Form B (I)
SMILES: CC(C)(C)NC(=O)c1cc(NC(=O)Cc2cc(Cl)ccc2O)ccn1 [Form B (I) and Form B (II)]
